Reference: US9999619B2, “Piperidin-4-yl azetidine derivatives as JAK1 inhibitors” (Incyte Corporation, priority 2010, dated 2018)
Counter-ions that a name gives are not always drawn.

What was measured:
Type in all cases: biochemical
[1] = biological target: Jak2 (a.a. 828-1132) (Homo sapiens (Human), UniProt O60674); assay: In vitro JAK kinase assay (HTRF, phosphorylation of a biotinylated peptide), JAK2; details: measured at 1 mM ATP
Summary of the method: (§1)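 Phosphorylation of a biotinylated peptide by purified His-tagged JAK catalytic domains (insect-cell baculovirus expression) ran 1 hr at room temperature. After stopping with EDTA, Eu-Py20 and SA-APC were bound for 40 minutes and HTRF measured.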

[2] = biological target: human JAK1 (a.a. 837-1142); assay: In vitro JAK kinase assay (HTRF, phosphorylation of a biotinylated peptide), JAK1; details: ratio of JAK2 IC50 to JAK1 IC50, measured at 1 mM ATP
Summary of the method: as §1

[3] = biological target: human JAK1 (a.a. 837-1142) (Homo sapiens, UniProt P23458); assay: as above; details: measured at 1 mM ATP
Summary of the method: as §1

Jak2 (a.a. 828-1132), sequence (O60674 828-1132): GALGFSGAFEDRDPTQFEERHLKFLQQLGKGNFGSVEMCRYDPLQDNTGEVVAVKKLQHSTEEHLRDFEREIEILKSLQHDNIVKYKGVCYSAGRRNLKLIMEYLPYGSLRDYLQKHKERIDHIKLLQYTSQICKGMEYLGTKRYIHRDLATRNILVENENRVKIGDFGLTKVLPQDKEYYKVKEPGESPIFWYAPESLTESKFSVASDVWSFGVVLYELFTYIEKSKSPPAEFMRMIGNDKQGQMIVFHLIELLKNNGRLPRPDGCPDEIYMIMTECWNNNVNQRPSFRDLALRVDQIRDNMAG

IC50 [1] [nM]	IC50 Ratio JAK2/JAK1 [2]	IC50 [3] [nM]	Compound
50 to 100	36.9	≤ 5	N#CCC1(n2cc(-c3ncnc4[nH]ccc34)cn2)CN(C2CCN(C(=O)c3cc(CN4CCC(F)(F)C4)nc(C(F)(F)F)n3)CC2)C1 [Example 379, {1-(1-{[6-[(3,3-difluoropyrrolidin-1-yl)methyl]-2-(trifluoromethyl)pyrimidin-4-yl]carbonyl}piperidin-4-yl)-3-[4-(7H-pyrrolo[2,3-d]pyrimidin-4-yl)-1H-pyrazol-1-yl]azetidin-3-yl}acetonitrile (trifluoroacetate salt: 4 TFA)]
≤ 10	3.6	≤ 5	N#CCC1(n2cc(-c3ncnc4[nH]ccc34)cn2)CN(C2CCN(C(=O)Nc3cc(F)cc(F)c3)CC2)C1 [Example 175, 4-{3-(cyanomethyl)-3-[4-(7H-pyrrolo[2,3-d]pyrimidin-4-yl)-1H-pyrazol-1-yl]azetidin-1-yl}-N-(3,5-difluorophenyl)piperidine-1-carboxamide]
> 100	6.5	20 to 30	N#CCC1(n2cc(-c3ccnc4[nH]ccc34)cn2)CN(C2CCN(C(=O)C3CCC(F)(F)CC3)CC2)C1 [Example 302, {1-{1-[(4,4-fluorocyclohexyl)carbonyl]piperidin-4-yl}-3-[4-(1H-pyrrolo[2,3-b]pyridin-4-yl)-1H-pyrazol-1-yl]azetidin-3-yl}acetonitrile]
≤ 10	8.8	≤ 5	N#CCC1(n2cc(-c3ncnc4[nH]ccc34)cn2)CN(C2CCN(C(=O)c3c(F)c(F)cc(F)c3F)CC2)C1 [Example 56, {3-[4-(7H-pyrrolo[2,3-d]pyrimidin-4-yl)-1H-pyrazol-1-yl]-1-[1-(2,3,5,6-tetrafluorobenzoyl)piperidin-4-yl]azetidin-3-yl}acetonitrile]
10 to 50	9.7	≤ 5	N#CCC1(n2cc(-c3ncnc4[nH]ccc34)cn2)CN(C2CCN(Cc3c(F)cccc3C(F)(F)F)CC2)C1 [Example 213, {1-{1-[2-fluoro-6-(trifluoromethyl)benzyl]piperidin-4-yl}-3-[4-(7H-pyrrolo[2,3-d]pyrimidin-4-yl)-1H-pyrazol-1-yl]azetidin-3-yl}acetonitrile]
10 to 50	6.9	≤ 5	N#CCC1(n2cc(-c3ncnc4[nH]ccc34)cn2)CN(C2CCN(C(=O)c3ccc(F)c(F)c3)CC2)C1 [Example 35, {1-[1-(3,4-difluorobenzoyl)piperidin-4-yl]-3-[4-(7H-pyrrolo[2,3-d]pyrimidin-4-yl)-1H-pyrazol-1-yl]azetidin-3-yl}acetonitrile]
10 to 50	3.8	≤ 5	CS(=O)(=O)N1CCC(N2CC(CC#N)(n3cc(-c4c(C#N)cnc5[nH]ccc45)cn3)C2)CC1 [Example 357, 4-(1-{3-(Cyanomethyl)-1-[1-(methylsulfonyl)piperidin-4-yl]azetidin-3-yl}-1H-pyrazol-4-yl)-1H-pyrrolo[2,3-b]pyridine-5-carbonitrile]
10 to 50	9.4	≤ 5	N#CCC1(n2cc(-c3ncnc4[nH]ccc34)cn2)CN(C2CCN(C(=O)c3cc(Cl)cc(C(F)(F)F)n3)CC2)C1 [Example 53, {1-(1-{[4-chloro-6-(trifluoromethyl)pyridin-2-yl]carbonyl}piperidin-4-yl)-3-[4-(7H-pyrrolo[2,3-d]pyrimidin-4-yl)-1H-pyrazol-1-yl]azetidin-3-yl}acetonitrile]
50 to 100	7.4	5 to 20	N#CCC1(n2ccc(-c3ncnc4[nH]ccc34)c2)CN(C2CCN(C(=O)c3cccc(C#N)c3)CC2)C1 [Example 262, 3-[(4-{3-(cyanomethyl)-3-[3-(7H-pyrrolo[2,3-d]pyrimidin-4-yl)-1H-pyrrol-1-yl]azetidin-1-yl}piperidin-1-yl)carbonyl]benzonitrile]
10 to 50	32.7	≤ 5	N#CCC1(n2cc(-c3ncnc4[nH]ccc34)cn2)CN(C2CCN(C(=O)c3cc(CN4CC[C@@H](F)C4)nc(C(F)(F)F)n3)CC2)C1 [Example 378, {1-(1-{[6-{[(3R)-3-fluoropyrrolidin-1-yl]methyl}-2-(trifluoromethyl)pyrimidin-4-yl]carbonyl}piperidin-4-yl)-3-[4-(7H-pyrrolo[2,3-d]pyrimidin-4-yl)-1H-pyrazol-1-yl]azetidin-3-yl}acetonitrile (trifluoroacetate salt: 4 TFA)]
10 to 50	15.5	≤ 5	N#CCC1(n2cc(-c3ncnc4[nH]ccc34)cn2)CN(C2C3COCC2CN(C(=O)c2ccnc(C(F)(F)F)c2F)C3)C1 (stereo not drawn) [Example 365, {1-{7-[3-Fluoro-2-(trifluoromethyl)isonicotinoyl]-3-oxa-7-azabicyclo[3.3.1]non-9-yl}-3-[4-(7H-pyrrolo[2,3-d]pyrimidin-4-yl)-1H-pyrazol-1-yl]azetidin-3-yl}acetonitrile]
10 to 50	4.4	≤ 5	Cc1ncccc1NC(=O)N1CCC(N2CC(CC#N)(n3cc(-c4ncnc5[nH]ccc45)cn3)C2)CC1 [Example 198, 4-{3-(cyanomethyl)-3-[4-(7H-pyrrolo[2,3-d]pyrimidin-4-yl)-1H-pyrazol-1-yl]azetidin-1-yl}-N-(2-methylpyridin-3-yl)piperidine-1-carboxamide]
10 to 50	7.5	≤ 5	Cn1nccc1S(=O)(=O)N1CCC(N2CC(CC#N)(n3cc(-c4ncnc5[nH]ccc45)cn3)C2)CC1 [Example 246, {1-{1-[(1-Methyl-1H-pyrazol-5-yl)sulfonyl]piperidin-4-yl}-3-[4-(7H-pyrrolo[2,3-d]pyrimidin-4-yl)-1H-pyrazol-1-yl]azetidin-3-yl}acetonitrile]
≤ 10	7.1	≤ 5	N#CCC1(n2cc(-c3ncnc4[nH]ccc34)cn2)CN(C2CCN(C(=O)Nc3cc(F)ccc3F)CC2)C1 [Example 174, 4-{3-(cyanomethyl)-3-[4-(7H-pyrrolo[2,3-d]pyrimidin-4-yl)-1H-pyrazol-1-yl]azetidin-1-yl}-N-(2,5-difluorophenyl)piperidine-1-carboxamide]
≤ 10	1.8	≤ 5	CN(C)c1c(F)c(F)c(C(=O)N2CCC(N3CC(CC#N)(n4cc(-c5ncnc6[nH]ccc56)cn4)C3)CC2)c(F)c1F [Example 60, {1-{1-[4-(dimethylamino)-2,3,5,6-tetrafluorobenzoyl]piperidin-4-yl}-3-[4-(7H-pyrrolo[2,3-d]pyrimidin-4-yl)-1H-pyrazol-1-yl]azetidin-3-yl}acetonitrile]
50 to 100	6.6	5 to 20	N#CCC1(n2cc(-c3ncnc4[nH]ccc34)cn2)CN(C2CCN(C(=O)C3CCC(F)(F)CC3)CC2)C1 [Example 100, {1-{1-[(4,4-difluorocyclohexyl)carbonyl]piperidin-4-yl}-3-[4-(7H-pyrrolo[2,3-d]pyrimidin-4-yl)-1H-pyrazol-1-yl]azetidin-3-yl}acetonitrile]
50 to 100	4.5	5 to 20	N#CCC1(n2cc(-c3c(F)cnc4[nH]ccc34)cn2)CN(C2CCN(C(=O)Nc3ncccc3C(F)(F)F)CC2)C1 [Example 329, 4-{3-(cyanomethyl)-3-[4-(5-fluoro-1H-pyrrolo[2,3-b]pyridin-4-yl)-1H-pyrazol-1-yl]azetidin-1-yl}-N-[3-(trifluoromethyl)pyridin-2-yl]piperidine-1-carboxamide]
50 to 100	11.0	5 to 20	N#CCC1(n2cc(-c3ncnc4[nH]ccc34)cn2)CN(C2CCN(C(=O)C3CCCCC3)CC2)C1 [Example 8, {1-[1-(cyclohexylcarbonyl)piperidin-4-yl]-3-[4-(7H-pyrrolo[2,3-d]pyrimidin-4-yl)-1H-pyrazol-1-yl]azetidin-3-yl}acetonitrile]
50 to 100	19.7	≤ 5	N#CCC1(n2cc(-c3ccnc4[nH]ccc34)cn2)CN(C2CCN(C(=O)Nc3ccc(F)cc3C(F)(F)F)CC2)C1 [Example 303, 4-{3-(Cyanomethyl)-3-[4-(1H-pyrrolo[2,3-b]pyridin-4-yl)-1H-pyrazol-1-yl]azetidin-1-yl}-N-[4-fluoro-2-(trifluoromethyl)phenyl]piperidine-1-carboxamide]
> 100	9.3	5 to 20	Cc1onc(-c2ccccc2)c1CN1CCC(N2CC(CC#N)(n3cc(-c4ncnc5[nH]ccc45)cn3)C2)CC1 [Example 230, {1-{1-[(5-methyl-3-phenylisoxazol-4-yl)methyl]piperidin-4-yl}-3-[4-(7H-pyrrolo[2,3-d]pyrimidin-4-yl)-1H-pyrazol-1-yl]azetidin-3-yl}acetonitrile]
10 to 50	4.0	≤ 5	COc1ncccc1NC(=O)N1CCC(N2CC(CC#N)(n3cc(-c4ncnc5[nH]ccc45)cn3)C2)CC1 [Example 204, 4-{3-(cyanomethyl)-3-[4-(7H-pyrrolo[2,3-d]pyrimidin-4-yl)-1H-pyrazol-1-yl]azetidin-1-yl}-N-(2-methoxypyridin-3-yl)piperidine-1-carboxamide]

Compound	IC50 [1] [nM]	IC50 Ratio JAK2/JAK1 [2]	IC50 [3] [nM]
N#CCC1(n2cc(-c3ncnc4[nH]ccc34)cn2)CN(C2CC3CCC(C2)N3C(=O)c2ccc(F)c(F)c2)C1 (stereo not drawn) [Example 139, {1-[8-(3,4-difluorobenzoyl)-8-azabicyclo[3.2.1]oct-3-yl]-3-[4-(7H-pyrrolo[2,3-d]pyrimidin-4-yl)-1H-pyrazol-1-yl]azetidin-3-yl}acetonitrile]	≤ 10	4.4	≤ 5
